Like-named read-outs stand apart in the source and are kept apart here.

Experiment [1] concerns Ly-3 lymphoma SQ xenografts. The experiment is described as follows: Ly-3 lymphoma SQ xenografts in mice. Particulars: oral, 100 mg/kg once a day, 7th treatment day, P=0.03 vs vehicle. The class given is in vivo. As to the method:
Ly-3 lymphoma cells (1×10^7) were subcutaneously injected to II-2 rg(ko)/NOD-SCID female mice. 7 mice were treated with vehicle as the control group once a day. 7 mice were treated with Compound 109 as the treatment group by oral administration at 100 mg/kg dose, once a day. Mice were euthanized at the 7th treatment day by IACUC of the Beckman Research Institute of City of Hope. In the figure, * means P=0.03 wherein P values less than 0.05 were considered statistically significant.

In experiment [2] the test system is DU145 prostate cancer cells. The experiment is described as follows: MTS cell viability assay in DU145 prostate cancer cells. The class given is cell-based. The method, then: (§1) Then, MTS assays for cell viability were carried out to determine the IC50 values. Four samples were tested for each isatin derivative at each concentration in each cell line, and the averaged data were shown in Table 2a and FIGS. 1˜4.
(§2) IC50 of values of isatin derivatives Compounds 101˜123 were determined in cancer cell lines DU145 and A2058 respectively.
Background: Tetrazolium assays rely on reduction of a dye to a coloured formazan, in cell work by metabolically active cells.

The test system of experiment [3] is A2058 human melanoma cells. The experiment is described as follows: MTS cell viability assay in A2058 melanoma cells. The class given is cell-based. As to the method:
as §1, §2

For experiment [4], the system named is OCI-Ly3 non-Hodgkins B cell lymphoma cells. The experiment is described as follows: MTS cell viability assay in OCI-Ly3 lymphoma cells. The class given is cell-based. Particulars: Homo sapiens, OCI-Ly3, 48 hr, 1% DMSO. The method, then: Each type of cells (5,000 or 10,000 cells/well) were treated with different concentration (0.01 μM to 5 μM in 1% DMSO of the test compound respectively for 48 hr). Then, MTS assays for cell viability were carried out to determine the IC50 values. Four samples were tested for each test compound at each concentration for each type of cells, and the averaged data were shown in Table 5 and FIGS. 10˜12.

Experiment [5] concerns A2780 cisplatin-resistant ovarian cancer cells. Nature of the experiment: MTS cell viability assay in A2780 cisplatin-resistant ovarian cancer cells. Particulars: for IC50: A2780 cisplatin-resistant, 48 hr, 1% DMSO, MTS. The class given is cell-based. The method, then:
(§3) Each type of cells (5,000 or 10,000 cells/well) were treated with different concentration (0.1 μM to 20 μM in 1% DMSO of cisplatin or Compound 2, 9, 12, 16 or 22 respectively for 48 hr). Then, MTS assays for cell viability were carried out to determine the IC50 values. Four samples were tested for each test compound at each concentration for each type of cells, and the averaged data were shown in Table 4 and FIGS. 6-8.

The test system of experiment [6] is OVCAR5 ovarian cancer cells. Nature of the experiment: MTS cell viability assay in OVCAR5 ovarian cancer cells. The class given is cell-based. Particulars: Homo sapiens, OVCAR-5, OVCAR5, 48 hr, 1% DMSO. As to the method:
as §3

The next experiment relates to Jak2. The experiment is described as follows: Immunoblot of Jak2 phosphorylation in A2058 cells. The class given is cell-based, human. To be noted: A2058, 0.5-5 μM, 4 hr, vs negative control, concentration-associated. As to the method:
(§4) A2058 melanoma cells were incubated in complete growth medium in 100 mm petri dishes (1×10^6 cells per dish) for 24 hr. Compound 2 was added at a concentration of 0.5 μM, 1.0 μM, 2.5 μM, and 5 μM respectively. Cell samples that were not added any Compound 2 were negative controls. After 4 hr, cells were lysed using Laemmli buffer. Differences in the phosphorylation of Her2/Neu, Jak2, Src, Stat3, AKT, and Erk1/2 were determined by immunoblot analysis (FIG. 14a).
(§5) A2058 melanoma cells were incubated in complete growth medium in 100 mm petri dishes (1×10^6 cells per dish) for 24 hr. Compound 2 was added at a concentration of 5 μM. Cell samples that were not added any Compound 2 were negative controls. Cells were lysed using Laemmli buffer 0.5 hr, 1 hr, 2 hr, 4 hr, 6 hr and 24 hr after treatment. Differences in the phosphorylation of Jak2, Src, Stat3, AKT, and Erk1/2 were determined by immunoblot analysis (FIG. 14b).
For orientation: In western blotting, separated proteins are transferred to a membrane and probed.

For a further experiment, the system named is Her2/Neu. Nature of the experiment: Immunoblot of Her2/Neu phosphorylation in A2058 cells. The class given is cell-based, human. To be noted: A2058, 0.5-5 μM, 4 hr, vs negative control, concentration-associated. As to the method: as §4
Experiment [7] concerns SKOV3 ovarian cancer cells. The experiment is described as follows: MTS cell viability assay in SKOV3 ovarian cancer cells. The class given is cell-based. To be noted: Homo sapiens, SK-OV-3, SKOV3, 48 hr, 1% DMSO. As to the method:
as §3

For another experiment, the system named is Stat3. The experiment is described as follows: Immunoblot of Stat3 phosphorylation in A2058 cells. To be noted: A2058, 0.5-5 μM, 4 hr, vs negative control, concentration-associated. The class given is cell-based, human. As to the method:
as §4, §5

The test system of a further experiment is Src. The experiment is described as follows: Immunoblot of Src phosphorylation in A2058 cells. The class given is cell-based, human. To be noted: A2058, 0.5-5 μM, 4 hr, vs negative control, concentration-associated. The method, then:
as §4, §5

Another experiment deals with AKT. Nature of the experiment: Immunoblot of AKT phosphorylation in A2058 cells. The class given is cell-based, human. Particulars: A2058, 0.5-5 μM, 4 hr, vs negative control, concentration-associated. The method, then:
as §4, §5

The test system of another experiment is EGFR. The experiment is described as follows: Immunoblot of EGFR phosphorylation in DU145 cells. To be noted: DU145, 0.5-5 μM, 4 hr, EGF 10 ng/ml, vs negative control, concentration-associated. The class given is cell-based. The method, then:
(§6) DU145 prostate cancer cells were incubated in complete growth medium in 100 mm petri dishes (1×10^6 cells per dish) for 24 hr. Compound 2 was added at a concentration of 0.5 μM, 1.0 μM, 2.5 μM, and 5 μM respectively. Cell samples that were not added any Compound 2 were negative controls. After 4 hr, EGF (10 ng/ml final concentration) was added to culture media and cells were lysed using Laemmli buffer. Differences in the phosphorylation of Erk1/2 and EGFR were determined by immunoblot analysis (FIG. 13).

Experiment [8] deals with Erk1/2. The experiment is described as follows: Immunoblot of Erk1/2 phosphorylation in DU145 cells. The class given is cell-based. Particulars: DU145, 0.5-5 μM, 4 hr, EGF 10 ng/ml, vs negative control, concentration-associated. The method, then:
as §6

Experiment [9] concerns PANC-1 pancreatic cancer cells. The experiment is described as follows: MTS cell viability assay in PANC-1 pancreatic cancer cells. The class given is cell-based. Particulars: Homo sapiens, PANC-1, 48 hr, 1% DMSO. The method, then:
Each type of cells (5,000 or 10,000 cells/well) were treated with different concentration (0.1 μM to 10 μM in 1% DMSO of Compound 2 or Compound 22 respectively for 48 hr). Then, MTS assays for cell viability were carried out to determine the IC50 values. Four samples were tested for each test compound at each concentration for each type of cells, and the averaged data were shown in Table 3 and FIG. 5.

The subject of experiment [10] is Erk1/2. The experiment is described as follows: Immunoblot of Erk1/2 phosphorylation in A2058 cells. The class given is cell-based, human. Particulars: A2058, 0.5-5 μM, 4 hr, vs negative control, concentration-associated. As to the method:
as §4, §5

The mark [11] stands for this setting: DU145, compound in DMSO, 48 hr, MTS (Table 2b), read-out: IC50 value, DMSO, DU145.
[12] abbreviates: Homo sapiens, DU-145, 48 h, DU145, compound in water, 48 hr, MTS (Table 2b), read-out: IC50 value, Water, DU145.
Setting [13] is: A2058, compound in DMSO, 48 hr, MTS (Table 2b), read-out: IC50 value, DMSO, A2058.
The mark [14] stands for this setting: Homo sapiens, A2058, 48 h, A2058, compound in water, 48 hr, MTS (Table 2b), read-out: IC50 value, Water, A2058.
Where [15] appears, read: Homo sapiens, DU-145, 48 h, DU145, 48 hr, 0.05 to 10 μM in 1% DMSO, MTS (Table 2a), read-out: DU145 IC50.
Where [16] appears, read: Homo sapiens, A2058, 48 h, 0.05 to 10 μM in 1% DMSO, MTS (Table 2a), read-out: A2058 IC50.
The mark [17] stands for this setting: Homo sapiens, DU-145, 48 h, DU145, compound in DMSO, 48 hr, MTS (Table 2b), read-out: IC50 value, DMSO, DU145.
Setting [18] is: Homo sapiens, A2058, 48 h, A2058, compound in DMSO, 48 hr, MTS (Table 2b), read-out: IC50 value, DMSO, A2058.

As to `O=C1C(=O)N(C/C=C/c2cccnc2)c2ccc(-c3cccnc3)cc21` [Compound 109], in [1], the “efficacy (tumor volume) in Ly-3 lymphoma SQ xenografts” value is “statistically significantly showed efficacy”. Besides, the IC50 in experiment [2] (setting [11]) was 480 nM; in experiment [2] (setting [12]) it was 630 nM; in [3] (setting [13]), 580 nM; in experiment [3] (setting [14]), 1000 nM; in experiment [4], 63 nM.
Regarding `O=C1C(=O)N(Cc2cccs2)c2ccc(-c3cccnc3)cc21` [Compound 12, N-(2-Thienylmethyl)-5-(pyridin-3-yl)indoline-2,3-dione], the concentration for half-maximal inhibition (IC50) in [5] (Homo sapiens, A2780, 48 h) turned out to be 900 nM; in [2] (setting [15]) it was 910 nM; in [3] (setting [16]) it was 2000 nM; in [6], 2200 nM.
For `O=C1C(=O)N(CCCc2ccccc2)c2ccc(-c3cccnc3)cc21` [Compound 9], the IC50 in [5] came to 390 nM; in experiment [5] (Homo sapiens, A2780, 48 h), 750 nM; in [2] (setting [15]) it was 470 nM; in experiment [3] (setting [16]) it was 660 nM; in experiment [6], 840 nM; in experiment [4] it was 260 nM. Besides, in [5] (FIG. 9, compared with cisplatin), the “viability of A2780 cisplatin-resistant ovarian cancer cells in comparison of cisplatin” value was “significantly reduced the viability”.
As for `O=C1C(=O)N(Cc2ccccc2)c2ccc(-c3cccnc3)cc21` [Compound 2], in the experiment on Jak2, the “phosphorylation of Jak2” value is recorded as “less phosphorylations”. The “phosphorylation of Her2/Neu” value with Her2/Neu is on record as “less phosphorylations”. In addition, the IC50 is more than 5000 nM in experiment [7]; 790 nM in experiment [2] (setting [15]); 780 nM in experiment [3] (setting [16]); 800 nM in experiment [6]; 970 nM in [9]. Moreover, in the experiment with Stat3, the “phosphorylation of Stat3” value is recorded as “less phosphorylations”. For the same molecule, the “phosphorylation of Src” value with Src is on record as “less phosphorylations”. For the same molecule, in the experiment on AKT, the “phosphorylation of AKT” value is recorded as “less phosphorylations”. In addition, the “phosphorylation of EGFR” value with EGFR is listed as “less phosphorylations”. Besides, the “phosphorylation of Erk1/2” value with Erk1/2 [8] and in the experiment on Erk1/2 [10] was “less phosphorylations” each time.
`O=C1C(=O)N(Cc2ccsc2)c2ccc(-c3cccnc3)cc21` [Compound 16, N-(3-Thienylmethyl)-5-(pyridin-3-yl)indoline-2,3-dione]: the IC50 in experiment [5] (Homo sapiens, A2780, 48 h) was determined as 500 nM; in experiment [2] (setting [15]) it was 900 nM; in experiment [3] (setting [16]), 1800 nM; in [6], 1700 nM.
As to `O=C1C(=O)N(Cc2ccc(-c3cccnc3)cc2)c2ccc(-c3cccnc3)cc21` [Compound 123], the 50% inhibitory concentration (IC50) came out at 600 nM in experiment [2] (setting [11]), 2300 nM in experiment [2] (setting [12]), 380 nM in experiment [3] (setting [13]) and 800 nM in experiment [3] (setting [14]).
In the same order, the values of `O=C1C(=O)N(CCCc2cccnc2)c2ccc(-c3cccnc3)cc21` [Compound 105] are 2500 nM, 4600 nM, 4800 nM and 4700 nM.
In the case of `O=C1C(=O)N(Cc2ccccc2)c2cc(Br)ccc21` [Compound 3, N-benzyl-6-bromoindoline-2,3-dione], the IC50 in experiment [2] (setting [15]) turned out to be 8500 nM; in experiment [3] (setting [16]) it was 8400 nM.
On to `O=C1C(=O)N(CCCc2ccccc2)c2ccc(-c3ccncc3)cc21` [Compound 28], for which the figures for the 50% inhibitory concentration (IC50) in [2] (setting [15]) and in experiment [3] (setting [16]) were 1300 nM and 1600 nM, respectively.
Regarding `O=C1C(=O)N(Cc2ccccc2-c2cccnc2)c2ccc(-c3cccnc3)cc21` [Compound 118], the IC50 in experiment [2] (setting [17]) is more than 5000 nM; in experiment [3] (setting [18]), 3300 nM.
Consider `O=C1C(=O)N(CCOCCO)c2ccc(-c3cccnc3)cc21` [Compound 11], for which the IC50 in [2] (setting [15]) and in experiment [3] (setting [16]) was more than 5000 nM throughout.
On to `O=C1C(=O)N(C/C=C/c2ccccc2)c2ccc(-c3cccc([N+](=O)[O-])c3)cc21` [Compound 101], for which the IC50 in [2] (setting [17]) turned out to be 2100 nM; in [3] (setting [18]), 2200 nM.
For `CCCc1ccc2c(c1)C(=O)C(=O)N2CCCc1ccccc1` [Compound 20], the IC50 in experiment [2] (setting [15]) was more than 5000 nM; in [3] (setting [16]), 2500 nM.

What is called IC50 is the concentration needed to halve the response being measured.
